Results reported in patent publication US9175044B2, “Derivatives of glyco-CF2-serine and glyco-CF2-threonine” (TFCHEM, priority 2010, dated 2015).

Columns and labels:
α-galactosidase = molecular target: T1, α-galactosidase (Coffea arabica, UniProt Q42656); experiment: Enzymatic stability of α-Gal-CF2-Ser pseudo-glycosidic bond with α-galactosidase; assay type: in vitro ADME; conditions: 24 h at 37° C.; for hydrolysis after incubation with α-galactosidase, mass spectra with vs without enzyme: ammonium acetate buffer 10 mM pH 7, α-galactosidase 2.25 U, MS; for cleavage by α-galactosidase, F-NMR analysis: ammonium acetate buffer pH 7, α-galactosidase 2.25 U
T1 construct: purchased Sigma G8507
T1 sequence (Q42656 16-378): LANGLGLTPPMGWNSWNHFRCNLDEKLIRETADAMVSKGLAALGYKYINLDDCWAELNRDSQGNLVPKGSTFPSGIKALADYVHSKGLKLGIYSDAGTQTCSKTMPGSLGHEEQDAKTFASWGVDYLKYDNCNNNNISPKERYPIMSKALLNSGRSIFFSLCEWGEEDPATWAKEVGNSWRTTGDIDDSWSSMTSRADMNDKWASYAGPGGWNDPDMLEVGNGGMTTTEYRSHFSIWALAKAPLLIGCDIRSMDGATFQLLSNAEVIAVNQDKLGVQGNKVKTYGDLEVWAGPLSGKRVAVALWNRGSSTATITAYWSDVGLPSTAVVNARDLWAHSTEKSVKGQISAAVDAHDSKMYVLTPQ
Method: The enzymatic stability has been performed with compounds Cd1, Cd2, Dd1 and Dd2 according to the invention and compound F was used as a reference compound to control the efficacy of the α-galactosidase. All the compounds have been treated with α-galactosidase. The stability of compounds Cd1, Cd2, Dd1 and Dd2 has been assessed by MS analysis after incubation with α-galactosidase. The procedure has been adapted from Maljaars et al. J. Comb. Chem. 2006, 8, 812-819.
Test compound Cd1 ([…], 1.8 mg) in 0.75 mL ammonium acetate buffer (10 mM, pH 7) was kept 24 h at 37° C. in the presence and absence of α-galactosidase (2.25 U, 41 μL of a 3.7 mg·mL^−1 suspension in ammonium sulphate (G8507 sigma, 14.7 U/mg)). 300 μL of the samples were filtered through a 3-kDa-cutoff centrifugal filter (Millipore) and the filter was washed with H2O (2×300 μL). The resultant solutions were diluted in water/methanol 1:1 (3 μL in 1 mL);
Test compound Cd2 ([…], 5.3 mg) has been treated in the presence and absence of α-galactosidase following the same process.
The samples of compound Cd1 and Cd2 in presence of α-galactosidase have been analyzed by mass spectrometry and their spectra compared to the mass spectra of compound Cd1 and Cd2 in absence of α-galactosidase.
The same procedure was applied to compound Dd1 ([…], 2.6 mg) and Dd2 ([…], 2.6 mg).
In parallel, p-nitrophenyl-α-galactoside (compound F, 6 μmol, 1.8 mg) in 0.75 mL of ammonium acetate buffer (10 mM, pH 7) was kept 24 h at 37° C. in the presence and absence of α-galactosidase 2.25 U, 41 μL of a 3.7 mg·mL^−1 suspension in ammonium sulphate ((G8507 sigma) 14.7 U/mg). The OD of the two samples was measured at 420 nm to verify that the α-galactosidase is working and that degradation occurs on compound F (OD420 with α-galactosidase=1.6303/OD420 without α-galactosidase=0.0124).

[1] = tested on: neonatal human skin fibroblasts (Cell line: CCD-27SK); experiment: Preservation of neonatal skin fibroblasts under starvation conditions (Trypan blue viability assay); assay type: cell-based; conditions: for effect on skin fibroblasts under unfavorable conditions for growth: 5 mg/ml in starvation medium, 7 days
Method: • The neonatal human skin fibroblasts (Cell line: CCD-27SK, ATCC number CRL-1475) were grown with DMEM medium supplemented with Fetal Bovine Serum 10% final, antibiotics (Penicillin/Streptomycin) 1% final and Amphotericin B 0.1% final. • Fibroblasts were grown in 75 cm^2 culture flask to 80% confluence, in 37° C. and 10% CO2 incubator. The medium was changed every two days by 37° C. preheated fresh medium. Starvation Medium • This medium was composed of 45% subculture medium without Fetal Bovine Serum mixed with 55% of Phosphate Buffer Saline 1× containing EDTA (final concentration of 0.45 mM). This was referred to as serum free or starvation medium. Product Preparation • The compounds 13(b)αd1 and 13(b)αd2 (M=479.9 g/mol) were diluted in starvation medium to 5 mg/ml final and pH was adjusted at 7.4 by addition of NaOH 1N. […] So, only the dead cells are blue at microscopic observation. • For sampling, 110 μl of Trypan Blue (SIGMA T8154) was added to 110 μl of trypsinated cell suspension of matching well for counting. • 200 μl of the trypan blue/cell mixture are dropped to a hemacytometer. Cells are counting by using a Neubauer-counting chamber. The unstained (viable) and stained (nonviable) cells are counted separately on 9 area of a large square (1 mm^2) and added to obtain the total number of cells per sample. An average of three counts was used to calculate the viability percentage as: [number of viable cells/total number of cells]*100 • The cell viability percentages from cultures under starvation conditions were compared with control culture for several days after their addition (D0, D3, D4, D5, D6, D7). Results

β-galactosidase = molecular target: T2, β-galactosidase (Escherichia coli, UniProt P00722); assay type: in vitro ADME; conditions: 24 h at 37° C.; for hydrolysis after incubation with β-galactosidase, mass spectra with vs without enzyme: ammonium acetate buffer 10 mM pH 7, β-galactosidase 4.5 U, MS (ESI)
T2 construct: purchased Sigma 48275
T2 sequence (P00722 2-1024): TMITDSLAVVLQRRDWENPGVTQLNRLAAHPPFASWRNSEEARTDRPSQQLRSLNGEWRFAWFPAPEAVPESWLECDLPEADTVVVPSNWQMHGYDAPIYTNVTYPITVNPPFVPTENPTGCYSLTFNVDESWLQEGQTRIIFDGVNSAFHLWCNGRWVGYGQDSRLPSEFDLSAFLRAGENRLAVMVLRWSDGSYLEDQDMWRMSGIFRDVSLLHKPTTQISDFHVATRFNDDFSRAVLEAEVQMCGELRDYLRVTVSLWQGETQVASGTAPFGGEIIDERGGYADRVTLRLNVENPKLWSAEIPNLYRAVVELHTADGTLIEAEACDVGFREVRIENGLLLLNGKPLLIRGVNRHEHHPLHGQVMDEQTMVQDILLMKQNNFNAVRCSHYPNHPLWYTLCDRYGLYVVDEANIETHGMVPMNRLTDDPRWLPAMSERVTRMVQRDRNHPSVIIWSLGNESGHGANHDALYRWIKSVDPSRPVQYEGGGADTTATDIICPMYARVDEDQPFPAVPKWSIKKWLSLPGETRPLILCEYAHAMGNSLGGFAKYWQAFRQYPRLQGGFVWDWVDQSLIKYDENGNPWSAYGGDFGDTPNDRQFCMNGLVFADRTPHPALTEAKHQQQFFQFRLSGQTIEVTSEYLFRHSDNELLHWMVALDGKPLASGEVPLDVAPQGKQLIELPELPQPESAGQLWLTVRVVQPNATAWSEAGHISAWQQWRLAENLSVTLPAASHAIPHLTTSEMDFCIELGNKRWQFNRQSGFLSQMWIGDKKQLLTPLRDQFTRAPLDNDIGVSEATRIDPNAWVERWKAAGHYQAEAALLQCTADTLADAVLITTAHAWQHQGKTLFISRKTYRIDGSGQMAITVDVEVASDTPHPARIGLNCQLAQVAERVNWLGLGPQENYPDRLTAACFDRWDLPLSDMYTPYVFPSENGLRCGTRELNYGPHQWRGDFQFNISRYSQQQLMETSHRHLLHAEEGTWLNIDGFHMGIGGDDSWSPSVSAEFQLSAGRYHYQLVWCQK
Method: The enzymatic stability has been performed with compound Ad1 and Ad2 according to the invention and compound B used as a reference compound to control the efficacy of the β-galactosidase. Both compounds have been treated with β-galactosidase. The stability of compound Ad1 and Ad2 has been assessed by mass spectrum (MS) analysis after incubation with β-galactosidase. The samples have been injected and ionized by electrospray (ES) (in positive and negative mode). The procedure has been adapted from Maljaars et al. J. Comb. Chem. 2006, 8, 812-819.
Test compound Ad1 (12 μmol, 5.3 mg) in 1.5 mL ammonium acetate buffer (10 mM, pH 7) was kept 24 h at 37° C. in the presence and absence of β-galactosidase (4.5 U, 32 μL of a 1 mg·mL^−1 solution in ammonium acetate buffer, (48275 sigma, 140 U per mg)). 300 μL of the sample was filtered through a 3-kDa-cutoff centrifugal filter (Millipore), and the filter was washed with H2O (2×300 μL). The obtained solutions were diluted in water/methanol 1:1 (3 μL in 1 mL).
Test compound Ad2 (12 μmol, 5.3 mg) has been treated in the presence and absence of β-galactosidase following the same process.
These samples of compound Ad1 and Ad2 in presence of β-galactosidase have been submitted to mass spectra and compared to the mass spectra of compound Ad1 and Ad2 in absence of β-galactosidase.
The two samples were also analyzed by F-NMR to confirm that the test compound Ad1 and Ad2 were not cleaved by the β-galactosidase.
In parallel, p-nitrophenyl-β-galactoside (compound B, 12 μmol, 3.6 mg) in 1.5 mL ammonium acetate buffer (10 mM, pH 7) was kept 24 h at 37° C. in the presence and absence of β-galactosidase (4.5 U, 32 μL of a 1 mg·mL^−1 solution in ammonium acetate buffer (48275 sigma, 140 U per mg)).
The optical density (OD) of the two samples was measured at 420 nm to verify that the β-galactosidase is working and that degradation occurs on compound B (OD420 with β-galactosidase=1.5786/OD420 without β-galactosidase=0.0465).

[2] = ammonium acetate buffer pH 7, β-galactosidase 4.5 U

Row | SMILES | hydrolysis after incubation with α-galactosidase, mass spectra with vs without enzyme (α-galactosidase) | cleavage by α-galactosidase, F-NMR analysis (α-galactosidase) | further results
1 | C[C@H](NC(=O)[C@H](C)NC(=O)C(N)CC(F)(F)[C@H]1O[C@H](CO)[C@H](O)[C@H](O)[C@H]1O)C(=O)O (single isomer, unassigned) [Dd1] | no hydrolysis occurs | not cleaved | –
2 | C[C@H](NC(=O)[C@H](C)NC(=O)C(N)CC(F)(F)[C@H]1O[C@H](CO)[C@H](O)[C@H](O)[C@H]1O)C(=O)O (single isomer, unassigned) [13(b)αd1] | – | – | effect on skin fibroblasts under unfavorable conditions for growth [1]: preservative effect; viability at 5000 µg/mL ([1]; Homo sapiens, CCD-27Sk, 168 h, 5 mg/ml in starvation (serum free) medium, up to 7 days of incubation, Trypan blue exclusion, read-out: fibroblast viability): ~95%
3 | C[C@H](NC(=O)[C@H](C)NC(=O)C(N)CC(F)(F)[C@@H]1O[C@H](CO)[C@H](O)[C@H](O)[C@H]1O)C(=O)O (stereo partly shown) [Ad2] | – | – | hydrolysis after incubation with β-galactosidase, mass spectra with vs without enzyme (β-galactosidase): no hydrolysis occurs; cleavage by β-galactosidase, F-NMR analysis (β-galactosidase; [2]): not cleaved
4 | C[C@H](NC(=O)[C@H](C)NC(=O)C(N)CC(F)(F)[C@@H]1O[C@H](CO)[C@H](O)[C@H](O)[C@H]1O)C(=O)O (stereo partly shown) [Ad1] | – | – | hydrolysis after incubation with β-galactosidase, mass spectra with vs without enzyme (β-galactosidase): no hydrolysis occurs; cleavage by β-galactosidase, F-NMR analysis (β-galactosidase; [2]): not cleaved
5 | C[C@H](NC(=O)[C@H](C)NC(=O)C(N)CC(F)(F)[C@H]1O[C@H](CO)[C@H](O)[C@H](O)[C@H]1O)C(=O)O (single isomer, unassigned) [13(b)αd2] | – | – | effect on skin fibroblasts under unfavorable conditions for growth [1]: preservative effect
6 | NC(CC(F)(F)[C@H]1O[C@H](CO)[C@H](O)[C@H](O)[C@H]1O)C(=O)O (stereo partly shown) [Cd2] | no hydrolysis occurs | not cleaved | –
7 | C[C@H](NC(=O)[C@H](C)NC(=O)C(N)CC(F)(F)[C@H]1O[C@H](CO)[C@H](O)[C@H](O)[C@H]1O)C(=O)O (single isomer, unassigned) [Dd2] | no hydrolysis occurs | not cleaved | –
8 | O=[N+]([O-])c1ccc(O[C@@H]2O[C@H](CO)[C@H](O)[C@H](O)[C@H]2O)cc1 [B, p-nitrophenyl-β-galactoside, reference compound] | – | – | visual observation in the presence of β-galactosidase (decomposition) (β-galactosidase; [2]): yellow coloration was observed
9 | NC(CC(F)(F)[C@H]1O[C@H](CO)[C@H](O)[C@H](O)[C@H]1O)C(=O)O (stereo partly shown) [Cd1] | no hydrolysis occurs | not cleaved | –
